From US11919972B2, “Peptide libraries with non-canonical amino acids” (REGENERON PHARMACEUTICALS, INC., priority 2018, dated 2024)
Square brackets hold non-standard residues; d marks the D form. Ends that are not written are not given here. Ala(cPr) = N[C@@H](CC1CC1)C(=O)O

Columns and labels:
CD8+ SupT1 cells [1] = test: Screen of focused OBOC peptide library against CD8+ cells; assay type: cell-based; conditions: 10% FBS
Experimental: In addition to screening the focused library against recombinant human CD8 protein, the library was screened against cells. Non-specific PCCs were identified and removed by an anti-screen against CD8− Jurkat cells. The pre-cleared library entered into a screen against CD8+ SupT1 cells in 2% FBS for 1 h at 4° C. […] Non-canonical amino acids including cyclopropyl alanine, thiazolyl alanine, 4-fluorophenylalanine, and 1-methyltryptophan were identified among the hits. The consensus sequence from the hits in Table 6 is trrkr (SEQ ID NO:30).
Because of the large number of electrostatic hits in the screen with 2% FBS, additional screens were performed varying the blocking conditions to decrease the quantity of electrostatic hits. In particular, screens using 10% FBS gave no hits with any electrostatic amino acids. These conditions ultimately identified tnpks (SEQ ID NO:31) and tp(CyA)k(Fp).

CD8+ SupT1 cells [2] = test: Flow cytometry binding to CD8+ SupT1 and CD8− Jurkat cells; assay type: cell-based; conditions: FIG. 1
From the text: FIG. 1 is a graph binding of some example peptides to CD8+ cells (SuppT1 cells) and CD8− cells (Jurkat cells).
The hits identified in the non-canonical screen were further evaluated in CD8+ SupT1 and CD8− Jurkat cells by flow cytometry.

Substance | hit in CD8+ cell screen with varied blocking conditions (CD8+ SupT1 cells [1]) | binding to CD8 compared with parent compound tfpkk (CD8+ SupT1 cells [2])
tp(CyA)k(FP): hit sequence following CD8+ cell screen; also identified in 10% FBS screen ([dT][dP][Ala(cPr)][dK]X; not fully specified (residue 5); printed as tp(CyA)k(FP)) | identified | improved binding to CD8 over the parent compound
tnpks: hit identified in CD8+ cell screen using 10% FBS (TNPKS; (1)..(5) D amino acids) | identified | 
